According to publication PMC6441007, “Semi-solid prodrug nanoparticles for long-acting delivery of water-soluble antiretroviral drugs within combination HIV therapies” (Nature Communications, 2019):
Values after ≈ are worked out from the molar mass of the structure shown. Where two headings read alike, the source gives them in different places. Each block holds one compound with its values, some of them ahead of it.

Columns and labels:
[1] = Prodrug hydrolysis in undiluted human plasma (HPLC, half-life); format: in vitro ADME; conditions: 1 mM, 37 °C
Protocol: (§1) As expected, rapid enzyme-catalysed hydrolysis of the 5’-carbonate group of 1–8 was observed, evident from the short plasma half-lives (<12 h) and relatively rapid initial hydrolysis rates in liver S9 and muscle S9 fractions (evaluated over a timeframe in which the carbamate masking group remains intact). […] Although chemically similar to capecitabine at the carbamate moiety, the plasma half-lives of longer-chain carbamates 12–16 were generally shorter. Initial hydrolysis rates in liver and muscle S9 fractions were within a sixfold range of capecitabine as measured in our hands, with the longer C5 to C8 analogues (13–16) undergoing hydrolysis most efficiently in liver S9 (Supplementary Figure 21). […] In all cases, the hydrolysis of the carbonate moiety of 1–8 was considerably faster in liver than muscle.
Reaction mixtures containing pooled mixed gender human plasma (Bioreclamation) were pre-incubated at 37 °C for 5 min. Reactions were initiated by the addition of prodrugs 1–8 (1 mM + 5% DMSO). […] The supernatant was diluted 10-fold into phosphate buffer (0.1 M, pH 7.4) and analysed by HPLC method described within Supplementary Information (monitoring starting material depletion at 305 nm). […]
323 buffer (0.1 M, pH 7.4) and analyzed by the HPLC method described above monitoring […]

[2] = Initial rate of prodrug hydrolysis in human liver S9 (HPLC); format: in vitro ADME; conditions: for Hydrolysis liver: IVIVE model input, determined experimentally
Protocol: as §1
(§2) Reaction mixtures containing mixed gender human skeletal muscle S9 (10.47 mg mL^−1, Bioreclamation) or phosphate buffer (0.1 M, pH 7.4) and pooled, mixed gender liver S9 (2.0 mg mL^−1, Xenotech) were pre-incubated at 37 °C for 5 min. Reactions were initiated by the addition of prodrugs 1–8 (1 mM + 5% DMSO). After incubation at 37 °C, aliquots were taken at time points measuring initial rate (Muscle S9: 1–3: 0.5, 10, 20, 30, 40, 50, and 60 min; 4: 0.5, 20, 40, 60, 80, 100, and 120 min; 5–6: 0.5, 30, 60, 90, 150, and 180 min; 7–8: 0.5 min, 30 min, 1 h, 3 h, 4 h, 5 h) (Liver S9: 1–2: 0.5, 1, 2, 3, 4, and 5 min; 3–6: 0.5, 2, 4, 6, 8, and 10 min; 7–8: 0.5, 5, 10, 15, 20, 25, 30, and 60 min). These aliquots were quenched in two volumes of ice-cold methanol. The quenched aliquots were then centrifuged at 16,873 × g for 5 min. The supernatant was diluted 10-fold into phosphate buffer (0.1 M, pH 7.4) and analysed by HPLC method described within Supplementary Information (monitoring starting material depletion at 305 nm). […]

[3] = Initial rate of prodrug hydrolysis in human skeletal muscle S9 (HPLC); format: in vitro ADME; conditions: for Hydrolysis muscle: IVIVE model input, determined experimentally
Protocol: as §1, §2

[4] = test system: human immunodeficiency virus type 1 reverse transcriptase; conditions: intracellular FTC-TP; cited from earlier work
[5] = IVIVE model input parameter (Supplementary Table 4); source not given; cited from earlier work
[6] = cited from earlier work
[7] = 25 °C; cited from earlier work
[8] = test system: viral replication; conditions: plasma concentration; cited from earlier work
[9] = oral 400mg FTC, human clinical data, mean (minimum-maximum)
[10] = oral FTC at steady state, average of 3 independent clinical studies, mean (± SD), ref Supplementary References 3-5

- plasma half-life (hydrolysis of 5'-carbonate moiety) [1]: shortest
SMILES: CCOC(=O)Nc1nc(=O)n([C@@H]2CS[C@H](COC(=O)OCC)O2)cc1F [prodrug 2, Ethyl (1-((2R,5S)-2-(((ethoxycarbonyl)oxy)methyl)-1,3-oxathiolan-5-yl)-5-fluoro-2-oxo-1,2-dihydropyrimidin-4-yl)carbamate]

- melting point: 44 to 47 °C
SMILES: CCCCCOC(=O)Nc1nc(=O)n([C@@H]2CS[C@H](CO)O2)cc1F [prodrug 13, Pentyl (5-fluoro-1-((2R,5S)-2-(hydroxymethyl)-1,3-oxathiolan-5-yl)-2-oxo-1,2-dihydropyrimidin-4-yl)carbamate]

- melting point: 110 °C
SMILES: CCCCCCOC(=O)Nc1nc(=O)n([C@@H]2CS[C@H](COC(=O)OCCCCCC)O2)cc1F [prodrug 6, Hexyl (5-fluoro-1-((2R,5S)-2-((((hexyloxy)carbonyl)oxy)methyl)-1,3-oxathiolan-5-yl)-2-oxo-1,2-dihydropyrimidin-4-yl)carbamate]

- melting point: 82 to 86 °C
SMILES: CCCOC(=O)Nc1nc(=O)n([C@@H]2CS[C@H](CO)O2)cc1F [prodrug 11, Propyl (5-fluoro-1-((2R,5S)-2-(hydroxymethyl)-1,3-oxathiolan-5-yl)-2-oxo-1,2-dihydropyrimidin-4-yl)carbamate]

- melting point: 97 to 103 °C
SMILES: COC(=O)Nc1nc(=O)n([C@@H]2CS[C@H](COC(=O)OC)O2)cc1F [prodrug 1, Methyl (5-fluoro-1-((2R,5S)-2-(((methoxycarbonyl)oxy)methyl)-1,3-oxathiolan-5-yl)-2-oxo-1,2-dihydropyrimidin-4-yl)carbamate]

- Hydrolysis liver [2]: 0.0282 h⁻¹
- Hydrolysis muscle [3]: 0.004 h⁻¹
SMILES: CCCCCCCCOC(=O)Nc1nc(=O)n([C@@H]2CS[C@H](CO)O2)cc1F [prodrug 16, Octyl (5-fluoro-1-((2R,5S)-2-(hydroxymethyl)-1,3-oxathiolan-5-yl)-2-oxo-1,2-dihydropyrimidin-4-yl)carbamate]

SMILES: CCCCOC(=O)Nc1nc(=O)n([C@@H]2CS[C@H](COC(=O)OCCCC)O2)cc1F [prodrug 4, Butyl (1-((2R,5S)-2-(((butoxycarbonyl)oxy)methyl)-1,3-oxathiolan-5-yl)-5-fluoro-2-oxo-1,2-dihydropyrimidin-4-yl)carbamate]
- Hydrolysis liver [2]: 0.5786 h⁻¹
- Hydrolysis muscle [3]: 0.0290 h⁻¹

- melting point: 85 to 89 °C
SMILES: COC(=O)Nc1nc(=O)n([C@@H]2CS[C@H](CO)O2)cc1F [prodrug 9, Methyl (5-fluoro-1-((2R,5S)-2-(hydroxymethyl)-1,3-oxathiolan-5-yl)-2-oxo-1,2-dihydropyrimidin-4-yl)carbamate]

- plasma half-life (hydrolysis of 5'-carbonate moiety) [1]: shortest
- 5'-carbonate hydrolysis rate in liver S9 ([2]; 1 mM, 37 °C, across series 1-8): maximum
- 5'-carbonate hydrolysis rate in muscle S9 ([3]; 1 mM, 37 °C, across series 1-8): maximum
- melting point: 102 to 107 °C
SMILES: CCCOC(=O)Nc1nc(=O)n([C@@H]2CS[C@H](COC(=O)OCCC)O2)cc1F [prodrug 3, Propyl (5-fluoro-2-oxo-1-((2R,5S)-2-(((propoxycarbonyl)oxy)methyl)-1,3-oxathiolan-5-yl)-1,2-dihydropyrimidin-4-yl)carbamate]

SMILES: Nc1nc(=O)n([C@@H]2CS[C@H](COP(=O)(O)OP(=O)(O)OP(=O)(O)O)O2)cc1F [FTC-TP, FTC triphosphate]
- intracellular half-maximal inhibitory concentration (IC50) [4]: 150 fmol per 10^6 cells

- melting point: 46 °C
SMILES: CCCCCCCOC(=O)Nc1nc(=O)n([C@@H]2CS[C@H](CO)O2)cc1F [prodrug 15, Heptyl (5-fluoro-1-((2R,5S)-2-(hydroxymethyl)-1,3-oxathiolan-5-yl)-2-oxo-1,2-dihydropyrimidin-4-yl)carbamate]

- Hydrolysis liver [2]: 0.0125 h⁻¹
- Hydrolysis muscle [3]: 0.001 h⁻¹
- melting point: 47 °C
SMILES: CCCCOC(=O)Nc1nc(=O)n([C@@H]2CS[C@H](CO)O2)cc1F [prodrug 12, Butyl (5-fluoro-1-((2R,5S)-2-(hydroxymethyl)-1,3-oxathiolan-5-yl)-2-oxo-1,2-dihydropyrimidin-4-yl)carbamate]

SMILES: Nc1nc(=O)n([C@@H]2CS[C@H](CO)O2)cc1F [FTC, emtricitabine]
- Plasma Cl [5]: 19.35 L/h
- AUC, observed [6, 9]: 16484 (11524-21388) ng/h/mL
- Cmax, observed [6, 9]: 2968 (1582-4165) ng/mL
- Cmin, observed [6, 9]: 63 (48-134) ng/mL
- AUC, observed [6, 10]: 9100 (± 1646) ng/h/mL
- Cmax, observed [6, 10]: 1773 (± 46.1) ng/mL
- Cmin, observed [6, 10]: 67 (± 25) ng/mL
- water solubility [7]: 112 mg/mL (≈ 453 mM)
- concentration inhibiting 90% of viral replication (IC90) [8]: 0.05 µg/mL

- melting point: 103 to 106 °C
SMILES: CCCCCOC(=O)Nc1nc(=O)n([C@@H]2CS[C@H](COC(=O)OCCCCC)O2)cc1F [prodrug 5, Pentyl (5-fluoro-2-oxo-1-((2R,5S)-2-((((pentyloxy)carbonyl)oxy)methyl)-1,3-oxathiolan-5-yl)-1,2-dihydropyrimidin-4-yl)carbamate]

- melting point: 46 to 49 °C
SMILES: CCCCCCOC(=O)Nc1nc(=O)n([C@@H]2CS[C@H](CO)O2)cc1F [prodrug 14, Hexyl (5-fluoro-1-((2R,5S)-2-(hydroxymethyl)-1,3-oxathiolan-5-yl)-2-oxo-1,2-dihydropyrimidin-4-yl)carbamate]

- Hydrolysis liver [2]: 0.0694 h⁻¹
- Hydrolysis muscle [3]: 0.0067 h⁻¹
SMILES: CCCCCCCCOC(=O)Nc1nc(=O)n([C@@H]2CS[C@H](COC(=O)OCCCCCCCC)O2)cc1F [prodrug 8, Octyl (5-fluoro-1-((2R,5S)-2-((((octyloxy)carbonyl)oxy)methyl)-1,3-oxathiolan-5-yl)-2-oxo-1,2-dihydropyrimidin-4-yl)carbamate]
